US20110206770A1, “ATOVAQUONE WITH A PARTICLE SIZE DIAMETER RANGE (D90) OF GREATER THAN 3 MICRONS TO ABOUT 10 MICRONS” (Alphapharm Pty. Ltd., priority 2008, published 2011)

Assay: D90 particle size of atovaquone by Malvern Mastersizer
Assay type: physicochemical
Method: […]

[1] = Run 1, stir time 1 min, 30 mg in 900 mL purified water, polysorbate 80, 10 min sonication, 400 rpm

D90 particle size [1] [microns] | D90 particle size (Run 1, stir time 2 min) [microns] | D90 particle size (Run 1, stir time 3 min) [microns] | D90 particle size (Run 1, stir time 4 min) [microns] | D90 particle size (Run 1, stir time 5 min) [microns] | D90 particle size (Run 2, stir time 1 min) [microns] | D90 particle size (Run 2, stir time 2 min) [microns] | D90 particle size (Run 2, stir time 3 min) [microns] | D90 particle size (Run 2, stir time 4 min) [microns] | D90 particle size (Run 2, stir time 5 min) [microns] | D90 particle size (Run 3, stir time 1 min) [microns] | D90 particle size (Run 3, stir time 2 min) [microns] | D90 particle size (Run 3, stir time 3 min) [microns] | D90 particle size (Run 3, stir time 4 min) [microns] | D90 particle size (Run 3, stir time 5 min) [microns] | D90 particle size (Run 4, stir time 1 min) [microns] | D90 particle size (Run 4, stir time 2 min) [microns] | D90 particle size (Run 4, stir time 3 min) [microns] | D90 particle size (Run 4, stir time 4 min) [microns] | D90 particle size (Run 4, stir time 5 min) [microns] | SMILES
4.280 | 4.280 | 4.280 | 4.280 | 4.280 | 4.260 | 4.260 | 4.261 | 4.261 | 4.260 | 4.124 | 4.124 | 4.123 | 4.123 | 4.125 | 4.285 | 4.285 | 4.286 | 4.286 | 4.286 | O=C1C(O)=C([C@H]2CC[C@H](c3ccc(Cl)cc3)CC2)C(=O)c2ccccc21 [Example 3, trans-2-[4-(4-chlorophenyl)cyclohexyl]-3-hydroxy-1,4-naphthalenedione]
5.088 | 5.089 | 5.090 | 5.088 | 5.088 | 5.182 | 5.183 | 5.182 | 5.183 | 5.184 | 5.049 | 5.049 | 5.048 | 5.047 | 5.048 | 5.283 | 5.282 | 5.283 | 5.284 | 5.281 | O=C1C(O)=C([C@H]2CC[C@H](c3ccc(Cl)cc3)CC2)C(=O)c2ccccc21 [Example 1, trans-2-[4-(4-chlorophenyl)cyclohexyl]-3-hydroxy-1,4-naphthalenedione]
4.651 | 4.652 | 4.652 | 4.653 | 4.651 | 4.628 | 4.628 | 4.629 | 4.631 | 4.630 | 4.836 | 4.836 | 4.837 | 4.836 | 4.984 | 4.814 | 4.814 | 4.815 | 4.814 | 4.814 | O=C1C(O)=C([C@H]2CC[C@H](c3ccc(Cl)cc3)CC2)C(=O)c2ccccc21 [Example 4, trans-2-[4-(4-chlorophenyl)cyclohexyl]-3-hydroxy-1,4-naphthalenedione]
6.177 | 6.176 | 6.175 | 6.176 | 6.176 | 6.258 | 6.257 | 6.258 | 6.260 | 6.259 | 6.338 | 6.339 | 6.336 | 6.339 | 6.337 | 6.572 | 6.572 | 6.572 | 6.569 | 6.571 | O=C1C(O)=C([C@H]2CC[C@H](c3ccc(Cl)cc3)CC2)C(=O)c2ccccc21 [Example 2, trans-2-[4-(4-chlorophenyl)cyclohexyl]-3-hydroxy-1,4-naphthalenedione]
7.971 | 7.949 | 8.215 | 8.276 | 7.948 | 7.726 | 7.723 | 7.726 | 7.727 | 7.723 | 7.978 | 7.974 | 7.977 | 7.979 | 7.973 | – | – | – | – | – | O=C1C(O)=C([C@H]2CC[C@H](c3ccc(Cl)cc3)CC2)C(=O)c2ccccc21 [Example 5, trans-2-[4-(4-chlorophenyl)cyclohexyl]-3-hydroxy-1,4-naphthalenedione]
